Results taken from the kinase profiling compilation of Christmann-Franck et al. (2016).

Key:
Assay in all cases: KINOMEscan competition binding
Settings in all cases: compound 10.0 µM
AAK1 (human) = AAK1 (human) (UniProt Q2M2I8)
ABL2 (human) = ABL2 (human) (UniProt P42684)
ACVR2A (human) = ACVR2A (human) (UniProt P27037)
AKT1 (human) = AKT1 (human) (UniProt P31749)
AURKB (human) = AURKB (human) (UniProt Q96GD4)
BLK (human) = BLK (human) (UniProt P51451)
CAMK1G (human) = CAMK1G (human) (UniProt Q96NX5)
CLK2 (human) = CLK2 (human) (UniProt P49760)
CSNK1E (human) = CSNK1E (human) (UniProt P49674)
DMPK (human) = DMPK (human) (UniProt Q09013)
DYRK1B (human) = DYRK1B (human) (UniProt Q9Y463)
EPHA4 (human) = EPHA4 (human) (UniProt P54764)
EPHA7 (human) = EPHA7 (human) (UniProt Q15375)
EPHB3 (human) = EPHB3 (human) (UniProt P54753)
ERBB3 (human) = ERBB3 (human) (UniProt P21860)
FYN (human) = FYN (human) (UniProt P06241)
MAP2K2 (human) = MAP2K2 (human) (UniProt P36507)
MAP4K1 (human) = MAP4K1 (human) (UniProt Q92918)
MAP4K2 (human) = MAP4K2 (human) (UniProt Q12851)
MARK2 (human) = MARK2 (human) (UniProt Q7KZI7)
MYO3B (human) = MYO3B (human) (UniProt Q8WXR4)
NTRK1 (human) = NTRK1 (human) (UniProt P04629)
NTRK3 (human) = NTRK3 (human) (UniProt Q16288)
PDGFRB (human) = PDGFRB (human) (UniProt P09619)
PTK2 (human) = PTK2 (human) (UniProt Q05397)
PTK6 (human) = PTK6 (human) (UniProt Q13882)
RIOK2 (human) = RIOK2 (human) (UniProt Q9BVS4)
SIK3 (human) = SIK3 (human) (UniProt Q9Y2K2)
SRPK2 (human) = SRPK2 (human) (UniProt P78362)
SRPK3 (human) = SRPK3 (human) (UniProt Q9UPE1)
TEK (human) = TEK (human) (UniProt Q02763)
TSSK1B (human) = TSSK1B (human) (UniProt Q9BXA7)
[1] = biological target: TYK2 JH2 pseudokinase (human) (UniProt P29597)
YSK4 (human) = YSK4 (human) (UniProt Q56UN5)

Chain of MAP4K2 (human) (Q12851 whole entry, looked up): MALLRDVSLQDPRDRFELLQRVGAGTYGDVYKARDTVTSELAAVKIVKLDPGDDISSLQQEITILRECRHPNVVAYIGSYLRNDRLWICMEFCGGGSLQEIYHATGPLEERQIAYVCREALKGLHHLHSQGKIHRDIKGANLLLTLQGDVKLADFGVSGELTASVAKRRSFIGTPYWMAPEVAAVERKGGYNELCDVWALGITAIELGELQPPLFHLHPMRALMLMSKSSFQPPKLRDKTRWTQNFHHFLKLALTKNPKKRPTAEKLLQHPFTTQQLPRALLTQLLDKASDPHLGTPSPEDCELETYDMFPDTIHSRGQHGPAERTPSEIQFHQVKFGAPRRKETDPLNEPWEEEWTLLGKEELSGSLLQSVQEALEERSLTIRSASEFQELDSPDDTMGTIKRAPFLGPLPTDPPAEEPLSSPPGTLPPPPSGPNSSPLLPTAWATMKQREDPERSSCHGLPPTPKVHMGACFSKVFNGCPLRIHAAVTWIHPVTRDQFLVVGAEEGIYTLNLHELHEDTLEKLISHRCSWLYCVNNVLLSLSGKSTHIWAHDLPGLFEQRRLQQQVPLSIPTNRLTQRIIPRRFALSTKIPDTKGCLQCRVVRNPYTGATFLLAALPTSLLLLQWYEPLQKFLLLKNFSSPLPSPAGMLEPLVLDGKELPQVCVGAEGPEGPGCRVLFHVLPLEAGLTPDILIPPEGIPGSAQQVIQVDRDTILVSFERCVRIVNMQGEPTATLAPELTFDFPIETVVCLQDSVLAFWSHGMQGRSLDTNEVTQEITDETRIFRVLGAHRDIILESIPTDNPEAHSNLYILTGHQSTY
Chain of MARK2 (human) (Q7KZI7 whole entry, looked up): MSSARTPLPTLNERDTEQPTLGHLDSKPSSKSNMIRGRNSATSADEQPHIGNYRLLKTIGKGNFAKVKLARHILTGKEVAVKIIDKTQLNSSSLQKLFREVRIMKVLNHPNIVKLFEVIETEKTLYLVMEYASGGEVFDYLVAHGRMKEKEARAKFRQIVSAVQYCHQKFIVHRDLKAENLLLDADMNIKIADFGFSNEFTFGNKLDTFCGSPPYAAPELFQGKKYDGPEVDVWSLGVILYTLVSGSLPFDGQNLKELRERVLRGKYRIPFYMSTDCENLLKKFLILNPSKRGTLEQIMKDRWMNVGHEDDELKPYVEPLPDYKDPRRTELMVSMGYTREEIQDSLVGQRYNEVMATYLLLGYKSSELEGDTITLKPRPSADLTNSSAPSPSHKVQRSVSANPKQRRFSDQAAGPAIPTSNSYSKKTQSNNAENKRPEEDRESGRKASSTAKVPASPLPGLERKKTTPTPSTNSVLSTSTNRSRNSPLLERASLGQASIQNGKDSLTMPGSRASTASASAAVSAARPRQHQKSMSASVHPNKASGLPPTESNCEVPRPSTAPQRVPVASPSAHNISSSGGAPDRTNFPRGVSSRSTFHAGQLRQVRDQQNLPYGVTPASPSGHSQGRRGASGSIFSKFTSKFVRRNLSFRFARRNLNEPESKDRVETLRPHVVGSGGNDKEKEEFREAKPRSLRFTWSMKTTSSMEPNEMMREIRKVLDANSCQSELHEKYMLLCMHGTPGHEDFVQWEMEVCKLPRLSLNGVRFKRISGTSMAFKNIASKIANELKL
Chain of CSNK1E (human) (P49674 whole entry, looked up): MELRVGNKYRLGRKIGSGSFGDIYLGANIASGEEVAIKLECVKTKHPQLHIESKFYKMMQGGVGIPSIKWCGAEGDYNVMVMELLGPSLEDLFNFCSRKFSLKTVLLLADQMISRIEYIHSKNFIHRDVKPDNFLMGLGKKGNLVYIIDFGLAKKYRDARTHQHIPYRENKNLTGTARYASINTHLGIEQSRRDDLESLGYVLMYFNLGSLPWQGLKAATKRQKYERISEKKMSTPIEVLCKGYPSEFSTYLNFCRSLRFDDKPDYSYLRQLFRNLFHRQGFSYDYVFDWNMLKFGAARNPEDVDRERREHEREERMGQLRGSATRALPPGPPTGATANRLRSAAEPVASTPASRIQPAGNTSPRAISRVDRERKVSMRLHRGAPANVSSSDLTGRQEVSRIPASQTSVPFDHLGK
Chain of NTRK1 (human) (P04629 whole entry, looked up): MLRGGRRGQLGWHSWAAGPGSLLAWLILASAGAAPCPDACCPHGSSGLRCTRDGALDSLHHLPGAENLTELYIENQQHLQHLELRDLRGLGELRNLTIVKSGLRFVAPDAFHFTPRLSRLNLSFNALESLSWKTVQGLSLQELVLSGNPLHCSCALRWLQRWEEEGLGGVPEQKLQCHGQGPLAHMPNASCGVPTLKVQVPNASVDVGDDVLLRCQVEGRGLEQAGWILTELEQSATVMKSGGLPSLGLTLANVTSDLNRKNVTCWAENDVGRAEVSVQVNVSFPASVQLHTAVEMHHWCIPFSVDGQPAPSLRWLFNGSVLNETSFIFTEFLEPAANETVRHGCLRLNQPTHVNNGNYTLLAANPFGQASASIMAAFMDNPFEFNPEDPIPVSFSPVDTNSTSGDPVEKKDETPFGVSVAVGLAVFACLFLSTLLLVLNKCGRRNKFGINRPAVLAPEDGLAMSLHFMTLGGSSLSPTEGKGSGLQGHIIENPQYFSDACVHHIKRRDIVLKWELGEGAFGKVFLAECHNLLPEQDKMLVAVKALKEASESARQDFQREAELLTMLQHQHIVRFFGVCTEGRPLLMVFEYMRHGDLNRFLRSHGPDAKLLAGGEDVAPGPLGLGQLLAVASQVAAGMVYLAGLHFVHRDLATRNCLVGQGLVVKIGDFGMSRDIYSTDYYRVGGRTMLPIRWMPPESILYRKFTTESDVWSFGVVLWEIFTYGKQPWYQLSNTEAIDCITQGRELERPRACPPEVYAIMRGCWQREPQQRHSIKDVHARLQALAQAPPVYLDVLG
Chain of SRPK3 (human) (Q9UPE1 whole entry, looked up): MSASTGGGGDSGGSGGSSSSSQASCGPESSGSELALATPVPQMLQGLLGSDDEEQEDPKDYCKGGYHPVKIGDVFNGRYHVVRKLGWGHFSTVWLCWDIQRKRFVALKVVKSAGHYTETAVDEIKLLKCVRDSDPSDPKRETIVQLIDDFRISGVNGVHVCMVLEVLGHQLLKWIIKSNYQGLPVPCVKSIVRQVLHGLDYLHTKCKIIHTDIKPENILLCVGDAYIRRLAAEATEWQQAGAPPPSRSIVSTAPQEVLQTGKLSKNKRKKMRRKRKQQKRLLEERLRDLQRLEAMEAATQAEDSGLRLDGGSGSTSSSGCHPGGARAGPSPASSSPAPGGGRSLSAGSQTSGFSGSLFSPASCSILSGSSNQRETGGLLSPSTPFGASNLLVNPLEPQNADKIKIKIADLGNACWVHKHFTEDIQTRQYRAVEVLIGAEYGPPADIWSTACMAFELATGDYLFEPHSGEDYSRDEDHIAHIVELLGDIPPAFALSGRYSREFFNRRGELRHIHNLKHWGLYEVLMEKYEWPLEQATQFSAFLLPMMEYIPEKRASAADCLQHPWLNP
Chain of PTK2 (human) (Q05397 whole entry, looked up): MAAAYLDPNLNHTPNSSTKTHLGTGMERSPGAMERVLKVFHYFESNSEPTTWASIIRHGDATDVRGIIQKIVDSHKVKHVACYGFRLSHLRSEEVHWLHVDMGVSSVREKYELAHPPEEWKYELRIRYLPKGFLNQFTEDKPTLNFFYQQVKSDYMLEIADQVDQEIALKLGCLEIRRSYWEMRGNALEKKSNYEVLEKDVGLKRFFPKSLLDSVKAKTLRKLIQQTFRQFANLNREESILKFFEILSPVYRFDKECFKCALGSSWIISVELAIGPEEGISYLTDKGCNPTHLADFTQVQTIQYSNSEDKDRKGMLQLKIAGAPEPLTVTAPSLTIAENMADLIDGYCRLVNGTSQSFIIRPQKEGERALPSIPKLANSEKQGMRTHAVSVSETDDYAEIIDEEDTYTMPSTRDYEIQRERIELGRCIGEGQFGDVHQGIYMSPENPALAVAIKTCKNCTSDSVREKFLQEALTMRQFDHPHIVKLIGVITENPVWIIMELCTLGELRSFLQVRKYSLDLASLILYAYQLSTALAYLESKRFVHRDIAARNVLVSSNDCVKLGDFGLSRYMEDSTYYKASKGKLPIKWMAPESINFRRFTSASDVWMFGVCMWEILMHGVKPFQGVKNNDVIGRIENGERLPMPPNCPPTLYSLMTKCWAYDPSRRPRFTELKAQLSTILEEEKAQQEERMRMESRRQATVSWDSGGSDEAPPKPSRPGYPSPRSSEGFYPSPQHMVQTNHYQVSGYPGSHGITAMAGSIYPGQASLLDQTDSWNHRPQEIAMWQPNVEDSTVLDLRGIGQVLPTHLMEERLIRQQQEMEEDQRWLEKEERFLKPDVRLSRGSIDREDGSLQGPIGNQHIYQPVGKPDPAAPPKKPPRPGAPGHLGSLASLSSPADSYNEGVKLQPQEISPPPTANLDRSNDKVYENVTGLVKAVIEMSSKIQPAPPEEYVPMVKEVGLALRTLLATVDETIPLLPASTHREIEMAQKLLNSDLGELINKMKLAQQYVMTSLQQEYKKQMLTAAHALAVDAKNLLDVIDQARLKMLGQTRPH
Chain of FYN (human) (P06241 whole entry, looked up): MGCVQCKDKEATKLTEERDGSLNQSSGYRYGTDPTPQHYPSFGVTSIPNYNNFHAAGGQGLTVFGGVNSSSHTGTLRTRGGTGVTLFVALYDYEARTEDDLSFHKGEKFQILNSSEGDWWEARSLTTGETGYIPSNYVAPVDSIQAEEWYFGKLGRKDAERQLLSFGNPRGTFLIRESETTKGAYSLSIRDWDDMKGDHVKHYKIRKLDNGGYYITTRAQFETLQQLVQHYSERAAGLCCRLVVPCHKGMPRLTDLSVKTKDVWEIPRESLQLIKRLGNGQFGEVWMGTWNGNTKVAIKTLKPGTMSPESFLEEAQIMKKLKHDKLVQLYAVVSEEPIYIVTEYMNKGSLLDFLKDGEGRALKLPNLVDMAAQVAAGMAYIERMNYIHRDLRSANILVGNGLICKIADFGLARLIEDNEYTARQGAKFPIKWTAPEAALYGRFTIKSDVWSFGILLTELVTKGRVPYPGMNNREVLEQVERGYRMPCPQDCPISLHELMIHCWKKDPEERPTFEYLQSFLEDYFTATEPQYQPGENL

Row | SMILES | kinase still bound, per cent of control (AAK1 (human)) | kinase still bound, per cent of control (ABL2 (human)) | kinase still bound, per cent of control (ACVR2A (human)) | kinase still bound, per cent of control (AKT1 (human)) | kinase still bound, per cent of control (AURKB (human)) | kinase still bound, per cent of control (BLK (human)) | kinase still bound, per cent of control (CSNK1E (human)) | kinase still bound, per cent of control (DMPK (human)) | kinase still bound, per cent of control (DYRK1B (human)) | kinase still bound, per cent of control (EPHA4 (human)) | kinase still bound, per cent of control (EPHA7 (human)) | kinase still bound, per cent of control (EPHB3 (human)) | kinase still bound, per cent of control (ERBB3 (human)) | kinase still bound, per cent of control (FYN (human)) | kinase still bound, per cent of control (MAP2K2 (human)) | kinase still bound, per cent of control (MAP4K1 (human)) | kinase still bound, per cent of control (MAP4K2 (human)) | kinase still bound, per cent of control (MARK2 (human)) | kinase still bound, per cent of control (MYO3B (human)) | kinase still bound, per cent of control (NTRK1 (human)) | other results
1 | CCN(CC)CCCCNc1ncc2c(n1)N(C)C(=O)N(c1c(Cl)c(OC)cc(OC)c1Cl)C2 | 100% | 100% | 100% | 100% | 100% | 100% | 100% | 100% | 100% | 100% | 100% | 100% | 100% | 100% | 100% | 100% | 100% | 100% | 100% | 100% | kinase still bound, per cent of control (CAMK1G (human)): 100%; kinase still bound, per cent of control (CLK2 (human)): 100%; kinase still bound, per cent of control (NTRK3 (human)): 100%; kinase still bound, per cent of control (PDGFRB (human)): 21%; kinase still bound, per cent of control (PTK2 (human)): 100%; kinase still bound, per cent of control (PTK6 (human)): 100%; kinase still bound, per cent of control (RIOK2 (human)): 100%; kinase still bound, per cent of control (SIK3 (human)): 100%; kinase still bound, per cent of control (SRPK2 (human)): 100%; kinase still bound, per cent of control (SRPK3 (human)): 100%; kinase still bound, per cent of control (TEK (human)): 100%; kinase still bound, per cent of control (TSSK1B (human)): 100%; kinase still bound, per cent of control [1]: 100%; kinase still bound, per cent of control (YSK4 (human)): 100%
2 | CS(=O)(=O)N1CCN(Cc2cc3nc(-c4cccc5[nH]ncc45)nc(N4CCOCC4)c3s2)CC1 | 100% | 100% | 100% | 100% | 100% | 100% | 100% | 100% | 100% | 100% | 100% | 100% | 100% | 100% | 100% | 100% | 100% | 100% | 100% | 100% | kinase still bound, per cent of control (NTRK3 (human)): 100%; kinase still bound, per cent of control (PDGFRB (human)): 100%; kinase still bound, per cent of control (PTK2 (human)): 100%; kinase still bound, per cent of control (PTK6 (human)): 100%; kinase still bound, per cent of control (RIOK2 (human)): 100%; kinase still bound, per cent of control (SIK3 (human)): 100%; kinase still bound, per cent of control (SRPK2 (human)): 100%; kinase still bound, per cent of control (SRPK3 (human)): 100%; kinase still bound, per cent of control (TEK (human)): 100%; kinase still bound, per cent of control (TSSK1B (human)): 100%; kinase still bound, per cent of control [1]: 100%; kinase still bound, per cent of control (YSK4 (human)): 100%
